Measured values as given in patent US20250250227A1, “AMINO LIPID COMPOUND, PREPARATION METHOD THEREFOR, COMPOSITION THEREOF AND USE THEREOF” (SHENZHEN SHENXIN BIOTECHNOLOGY CO., LTD., priority 2022, published 2025).

Legend:
Female BALB/c mice [1] = test: In vivo safety of hEPO mRNA lipid nanoparticle: serum alanine aminotransferase (ALT) enzyme activity; settings: hEPO mRNA LNP, 300 μL IV, serum 12 h after injection; FIG. 1
Method: A human erythropoietin mRNA (hEPO mRNA)-encapsulating lipid nanoparticle formulation was prepared according to the method as described in Experimental Example 1, with replacing the luciferase mRNA (Fluc mRNA) with human erythropoietin mRNA (hEPO mRNA), with a concentration of hEPO mRNA of 0.2 g/L, a mass ratio of hEPO mRNA to Lipid of 1:10, a particle size of 90-130 nm, and an encapsulation efficiency of above 90% or higher.
(§1) Animal preparation: Female BALB/c mice of 6-8 weeks old were selected and raised in an SPF grade breeding room. Animal testing was conducted in strict accordance with the guidelines of national health institutions and animal ethics requirements.
In vivo Delivery: Prior to injection of the test LNP formulations, the LNP formulations were gently and repeatedly inverted to thoroughly mix the formulation samples. A corresponding amount of the formulation samples were aspirated with a 1 ml insulin syringe, and the LNP formulations were injected by tail vein injection (IV), with 5 mice per formulation. Each mouse was injected with 300 μL of the human erythropoietin mRNA (hEPO mRNA)-encapsulating lipid nanoparticle formulation.
Serum acquisition: Blood samples of mice were collected 12 h after injection, placed in tubes without anticoagulants, and naturally coagulated at room temperature for 30-60 min, and then centrifuged at a speed of 3500 rpm for 10 min to obtain the supernatant, which was the serum.
The detection of alanine transaminase was carried out according to instructions of the kit (Nanjing Jiancheng Bioengineering Institute, Catalog. No. C009-2-1), and a standard curve was made using the standard provided in the kit. D-PBS was used in the experiment, which was purchased from Sangon Biotech (Shanghai) Co., Ltd., Catalog No. E607009-0600.
The method of detection of enzyme activity of alanine aminotransferase (ALT) in serum of the mice is as follows:
• (1) Enzymatic reaction: 0, 2, 4, 6, 8 and 10 μL of […] sodium pyruvate standard solution were sequentially added to 5 μL of 0.1 mol/L phosphate buffer, and the volume was supplemented to 25 μL with a matrix solution, and repeatedly aspirating and spitting with a pipette for mixing well; • (2) Addition reaction: 20 μL 2,4-dinitrophenylhydrazine solution was added to all reaction wells in (1), mixed by aspirating and spitting, and then placed in an incubator at 37° C. to react for 20 min; • (3) Developing: 200 μL of 0.4 mol/L NaOH solution was added to all reaction wells in (2) to stop the reaction, mixed by aspirating and spitting, and incubated at room temperature for 15 min. The OD value of each well was measured at 510 nm in a microplate reader; and • (4) Data processing of standard curve: The corresponding absolute OD value for each well was obtained by subtracting the OD value for 0 μL well from the measured OD value for each well, the corresponding ALT Karmen units being 0, 28, 57, 97, 150 and 200 U/L, respectively. The standard curve was obtain by taking the absolute OD value as the abscissa and the corresponding Karmen unit as the ordinate.
• (1) Reagent preparation: an ALT matrix solution was placed in an incubator at 37° C. for preheating; • (2) Enzymatic reaction: 5 μL diluted serum was aspirated and added to a 96-well plate, then 20 μL matrix solution was added to the corresponding sample well and mixed by repeatedly aspirating and spitting to avoid bubbling, and then placed in an incubator at 37° C. for 30 min; • (3) Addition reaction: 20 μL 2,4-dinitrophenylhydrazine was added to all reaction wells in (2), mixed by aspirating and spitting, and then reacted in an incubator at 37° C. for 20 min; • (4) Developing: 200 μL of 0.4 mol/L NaOH solution was added to all reaction wells in (3) to stop the reaction, mixed by aspirating and spitting, and then incubated at room temperature for 15 min. […]

[2] = Preparation and characterisation of mRNA-encapsulating lipid nanoparticle (encapsulation efficiency, particle size); type: physicochemical; settings: LNP encapsulating Fluc mRNA; Lipid:DSPC:CHO-HP:M-DMG-2000 48:10:40.5:1.5
Method: A specified amount of Fluc mRNA stock solution, 0.2 M sodium acetate buffer, and DEPC water were added to a container, and mixed well to obtain a water phase;
The amino lipid compound of the present disclosure, a helper lipid, a structural lipid, and a PEG-lipid were separately dissolved in absolute ethanol to prepare respective solutions at concentrations of 20 mg/mL, 10 mg/mL, 20 mg/mL, and 25 mg/mL, respectively. The above four solutions were pipetted at a molar ratio of Lipid:DSPC:CHO—HP:M-DMG-2000 of 48:10:40.5:1.5, and mixed well to prepare an alcohol phase. • (2) Encapsulation: The water phase and the alcohol phase were injected into a microfluidic chip at a flow rate of water phase: alcohol phase=12 mL/min: 4 mL/min by using a microfluidic preparation instrument (MPE-L2), and encapsulation was carried out at a flow rate of water phase: alcohol phase=9 mL/min: 3 mL/min to obtain mRNA-encapsulating lipid nanoparticle (mRNA-LNP). • (3) Dialysis: The product of step (2) was loaded in a dialysis bag and placed in a Tris Buffer-8% sucrose solution for replacement to remove ingredients such as residual ethanol, unassembled lipids. Dialysis was conducted for 2 h with magnetic stirring at room temperature and under protection from light (dialysate was replaced every 1 hour). • (4) The product of step (3) was sterilized by passing through a […] microporous membrane, and then packaged.
Lipid nanoparticle formulations encapsulating Fluc mRNA were prepared, with a concentration of Fluc mRNA of 0.2 g/L, a mass ratio of Fluc mRNA to Lipid of 1:10, a particle size of 80-130 nm, and a encapsulation efficiency of 85% or higher.
The encapsulation efficiency of the lipid nanoparticle encapsulating luciferase mRNA (Fluc mRNA) with a representative amino lipid compound and the fluorescence expression intensity induced by the same are shown in Table 4, with the amino lipid compound 118 as a control. […]

Female BALB/c mice [3] = test: Performance evaluation of in vivo delivery of Fluc mRNA lipid nanoparticle (IVIS, body and organs); settings: Fluc mRNA LNP; for Liver (fluorescence expression intensity) / Spleen (fluorescence expression intensity): 75 μL IV; for Liver (fluorescence expression intensity) / Spleen (fluorescence expression intensity) / Total flux (fluorescence expression intensity) / (Spleen/Total Flux) * 100%: 6 hours after injection; for Liver (fluorescence expression intensity) / Spleen (fluorescence expression intensity) / Total flux (fluorescence expression intensity): IVIS; for Total flux (fluorescence expression intensity): 75 μL tail vein injection (IV); for (Spleen/Total Flux) * 100% / Multiple of spleen delivery/total delivery to amino lipid compound 118: IV; for Multiple of spleen delivery/total delivery to amino lipid compound 118: relative to amino lipid compound 118
Method: as §1
In vivo Delivery: prior to injection of the test LNP formulations, the LNP formulations were gently and repeatedly inverted to thoroughly mix the formulation samples. A corresponding amount of the formulation samples were aspirated with a 1 ml insulin syringe, and the LNP formulations were injected by tail vein injection (IV), with 3 mice in duplicate per formulation. Each mouse was injected with 75 μL of the luciferase mRNA (Fluc mRNA)-encapsulating lipid nanoparticle formulation prepared in Experimental Example 1.
6 hours after injection of LNP formulations, mice were injected with 200 μL D-Luciferin luciferase developing substrate (Catalog No. 122799; Manufacturer: Perkin Elmer). After the substrate was injected, the mice were anesthetized with isoflurane inhalation, and the injection time of luciferase developing substrate was recorded.
The encapsulation efficiency of the lipid nanoparticle encapsulating luciferase mRNA (Fluc mRNA) with a representative amino lipid compound and the fluorescence expression intensity induced by the same are shown in Table 4, with the amino lipid compound 118 as a control.
The multiple of spleen delivery/total delivery of fluorescence expression intensity induced by lipid nanoparticle encapsulating luciferase mRNA (Fluc mRNA) with a representative amino lipid compound to amino lipid compound 118 is shown in Table 5.

Female BALB/c mice [4] = test: Humoral immunity test for total binding IgG antibody (ELISA, SARS-COV-2 antigen protein) in serum of immunized mice; type: in vivo; settings: IN002.5.1 mRNA LNP, 50 μL IM, serum on 14th day after immunization; FIG. 5-6
Female BALB/c mice [5] = test: IFN-γ Elispot cellular immunity test, spleen lymphocytes of mice immunized with IN002.5.1 mRNA LNP; type: in vivo; settings: 50 μL IM, spleen on 7th day after immunization, FIG. 2-4
Method: An IN002.5.1 mRNA-encapsulating lipid nanoparticle formulation was prepared according to the method as described in Experimental Example 1, with replacing the luciferase mRNA (Fluc mRNA) with IN002.5.1 mRNA, with a concentration of IN002.5.1 mRNA of 0.2 g/L, a mass ratio of IN002.5.1 mRNA to Lipid of 1:10, a particle size of 80-130 nm, and an encapsulation efficiency of 90% or higher.
The sequence of IN002.5.1 mRNA is one obtained by replacing all uracil (u) in SEQ ID NO. 1 with N1-methylpseudouridine. Of note is that the t (thymine) in the RNA sequence, SEQ ID NO. 1, in the Sequence Listing is actually u (uracil), according to the WIPO Standard ST. 26 for nucleotide or amino acid sequence listing.
as §1
Immunization of mice: Prior to injection of the test LNP formulations, the LNP formulations were gently and repeatedly inverted to thoroughly mix the formulation samples. A corresponding amount of the formulation samples were aspirated with a 1 ml insulin syringe, and the LNP formulations were injected by intramuscular injection (IM) […], with 8 mice per formulation. Each mouse was injected with 50 μL of the IN002.5.1 mRNA encapsulating lipid nanoparticle formulation.
Spleen acquisition: On the 7th day after immunization, 3 to 4 mice from each LNP immunization group were selected and euthanized, and their spleens were acquired in a super clean bench.
Isolation of lymphocytes: The spleens of mice were taken out in a super clean bench. 7 mL of mouse lymphocyte separation solution was added to a 6-well cell culture plate. Mouse spleen cells were ground with a syringe piston, and the suspension of the spleen cells was filtered through a cell screen and immediately transferred to a 15 mL centrifuge tube. […] RPMI 1640 medium was slowly added with keeping the liquid interface distinct. After centrifugation at 800 g with a horizontal rotor at room temperature for 30 minutes, a clear stratification can be visible. The lymphocyte layer was aspirated, then added with 10 mL RPMI 1640 medium, and inverted for washing. The cells were collected by centrifugation at 250 g for 10 min at room temperature, and the red blood cells were lysed. After completing lysis of red blood cells, the supernatant was poured, and the cells were resuspended in culture medium and counted.
Addition of stimulant and culture of lymphocyte: RPMI-1640 medium containing 10% fetal bovine serum was used to activate the pre-coated plate. After standing at room temperature for at least 30 min, the medium was removed, and a cell suspension at adjusted concentration was added ([…]). The medium used to resuspend the cells was used as a background negative control. 10 μL positive stimulant working solution (PMA+Ionomycin (dissolved in DPBS) was added to a positive control well; […] medium used to resuspend the cells was added to a negative control well; 10 µL/well of a peptide library diluted with RPMI 1640 was added to experimental wells. After all samples and the stimulant were added, the plate was covered, incubated in an incubator with 5% CO2 at 37° C. for 16-24 h.
Elispot detection after culture: The cells and the culture medium in the wells were dumped, and the wells were lysed with 200 μL/well of ice-cold deionized water at 4° C. for 10 min. The liquid in the wells were shaken out, and the wells were washed five times with PBS buffer. The wells were incubated with 100 μL/well of 1 μg/ml detection antibody for 2 h at room temperature; and after washing the plate 5 times with PBS, the wells were incubated with 100 μL/well of 1000-fold diluted enzyme labeled avidin (Streptavidin-HRP) for 1 h at room temperature. […]

SMILES: CCCCCCC(CCCCCC)OC(=O)CCCCCCCCC(CCCCCCCCC(=O)OC(CCCCCC)CCCCCC)OC(=O)N(CCCCCC(=O)OCCCC)CCCN(C)C [Compound 252]
- ALT enzyme activity (Karmen unit) compared to ALC0315 and SM-102 (Female BALB/c mice [1]): significantly lower ALT enzyme activity

SMILES: CCCCCCC(CCCCCC)OC(=O)CCCCCCCCC(CCCCCCCCC(=O)OC(CCCCCC)CCCCCC)OC(=O)N(CCCCC(=O)OCCCC)CCCN(C)C [Compound 255]
- ALT enzyme activity (Karmen unit) compared to ALC0315 and SM-102 (Female BALB/c mice [1]): significantly lower ALT enzyme activity

SMILES: CCCCCCC(CCCCCC)OC(=O)CCCCCCCCC(CCCCCCCCC(=O)OC(CCCCCC)CCCCCC)OC(=O)N(CCCC(=O)OCCCC)CCCN(C)C [Compound 259]
- Encapsulation efficiency [2]: 94.08%
- Liver (fluorescence expression intensity) (Female BALB/c mice [3]): 1.37E+08
- Spleen (fluorescence expression intensity) (Female BALB/c mice [3]): 1.29E+07
- Total flux (fluorescence expression intensity) (Female BALB/c mice [3]): 6.40E+08
- (Spleen/Total Flux) * 100% (Female BALB/c mice [3]): 2.02%
- Multiple of spleen delivery/total delivery to amino lipid compound 118 (Female BALB/c mice [3]): 5.93
- ALT enzyme activity (Karmen unit) compared to ALC0315 and SM-102 (Female BALB/c mice [1]): significantly lower ALT enzyme activity

SMILES: CCCCCCC(CCCCCC)OC(=O)CCCCCCCCC(CCCCCCCCC(=O)OC(CCCCCC)CCCCCC)OC(=O)N(CCCC(=O)OCCCCC)CCCN(C)C [Compound 260]
- Encapsulation efficiency [2]: 95.36%
- Liver (fluorescence expression intensity) (Female BALB/c mice [3]): 9.60E+07
- Spleen (fluorescence expression intensity) (Female BALB/c mice [3]): 3.27E+06
- Total flux (fluorescence expression intensity) (Female BALB/c mice [3]): 4.11E+08
- (Spleen/Total Flux) * 100% (Female BALB/c mice [3]): 0.80%
- Multiple of spleen delivery/total delivery to amino lipid compound 118 (Female BALB/c mice [3]): 2.34
- ALT enzyme activity (Karmen unit) compared to ALC0315 and SM-102 (Female BALB/c mice [1]): significantly lower ALT enzyme activity

SMILES: CCCCCCC(CCCCCC)OC(=O)CCCCCCCCC(CCCCCCCCC(=O)OC(CCCCCC)CCCCCC)OC(=O)N(CCCN(C)C)CC(=O)OCCC [Compound 269]
- Humoral immunity effect (IgG titer) compared to ALC0315 (Female BALB/c mice [4]): better humoral immunity effect

SMILES: CCCCCCC(CCCCCC)OC(=O)CCCCCCCCC(CCCCCCCCC(=O)OC(CCCCCC)CCCCCC)OC(=O)N(CCCCC(=O)OC(C)CC)CCCN(C)C (stereo not shown) [Compound 302]
- Cellular immunity effect (IFN-γ Elispot) compared to ALC0315 (Female BALB/c mice [5]): better cellular immunity effect

SMILES: CCCCCCC(CCCCCC)OC(=O)CCCCCCCCC(CCCCCCCCC(=O)OC(CCCCCC)CCCCCC)OC(=O)N(CCCC(=O)OC(C)C)CCCN(C)C [Compound 307]
- Cellular immunity effect (IFN-γ Elispot) compared to ALC0315 (Female BALB/c mice [5]): better cellular immunity effect
